Reference: US10314307B2, “(S)-abscisic acid derivatives for improving plant stress tolerance” (Valent BioSciences Corporation, priority 2015, dated 2019)

Key:
Type in all cases: in vivo
[1] = test system: corn plants, 111 day, central corn belt variety; assay: Corn plant chilling (growth rate); conditions: for Maintenance of growth under cold (10° C.) conditions: S-ABA even at 1000 mg/l (113.7 g/acre); for Growth Rate, Greenhouse 7-9 d post spray: after chilling; for Growth Rate, Growth Chamber 10° C. 2-7 d post spray: during chilling at 10° C.
Description: Corn seeds of a 111 day, central corn belt variety were planted in 2-quart pots filled with medium. After the corn grew for 10 days in the greenhouse at 24±3° C. (V2 to V3 growth stage), the plants received a foliar spray application of aqueous solutions of the test compounds containing 0.25% non-ionic surfactant with a volume equivalent to 30 gallons/acre. After spraying, plants were moved back to the greenhouse for 2 days, then moved to a growth chamber kept at 10° C. with a 16:8 light:dark cycle (cold treatment). After 5 days in the cold, plants were returned to the greenhouse for 2 days before being harvested destructively. Results of the studies comparing the growth rate of plants treated with S-ABA with 3′-methyl-(S)-ABA during the experiment are shown in Table 3. In additional studies, the effect of S-ABA and 3′-propargyl-(S)-ABA on corn growth rate in chilling studies was compared.

[2] = test system: corn plants, commercial 111 day, central corn belt variety; assay: Corn stomatal conductance; conditions: for Average Stomatal Conductance (% of Control), 6 DAS: 6 days after spraying; for Average Stomatal Conductance (% of Control), 16 DAS: 16 days after spraying; for Relative potency resulting in a 25% reduction in transpiration, times that seen with S-ABA: regression of the data in Table 5
Description: (§1) In this greenhouse experiment, foliar spray treatments containing 3′-methyl-(S)-abscisic acid, 3′-propargyl-(S)-abscisic acid or (S)-abscisic acid were applied to corn plants to evaluate their effect on gas exchange, as measured through stomatal conductance. Corn plants of a commercial, 111 day, central corn belt variety were grown in the greenhouse under optimal conditions for five weeks and were size-matched into ten groups of five plants. Using an aerosol sprayer, each group was sprayed to drip (25 milliliters per plant) with solutions containing a non-ionic surfactant (0.125%, v/v) and water (control), 2.5 mg, 7.5 mg or 25 mg/plant 3′-methyl-(S)-abscisic acid, or 2.5 mg, 7.5 mg or 25 mg/plant 3′-propargyl-(S)-abscisic acid, or 7.5 mg, 25 mg or 75 mg/plant (5)-ABA, respectively. After spraying, plants were returned to the greenhouse for the duration of the experiment. Stomatal conductance was measured using an AP4 porometer (Delta T Devices, Cambridge, UK) and the conductance for each plant was recorded at approximately the same time of day (˜10 AM) prior to treatment application as well as 1, 2, 5, 6, 9 and 16 days post-spraying.

[3] = test system: corn plants, commercial 111 day, central corn belt variety; assay: Corn plant leaf rolling assay and shoot fresh weight under drought; conditions: for Shoot Fresh Weight, 15 DAS: 12 days drought then 3 days watering; for Average # of Rolled Leaves/Plant, 5 DAS / Average # of Rolled Leaves/Plant, 6 DAS / Average # of Rolled Leaves/Plant, 8 DAS: water withheld; for Average # of Rolled Leaves/Plant, 5 DAS: 5 days after spraying; for Average # of Rolled Leaves/Plant, 6 DAS: 6 days after spraying; for Average # of Rolled Leaves/Plant, 8 DAS: 8 days after spraying
Description: as §1, with “post-spraying. This study was conducted as described above with the following the exceptions. After spraying, plants were put back in the greenhouse and water was withheld for twelve days, simulating drought stress. The plants were then watered to saturation for three consecutive days before the plant shoots were cut at the soil surface and subsequently weighed in grams (fresh weight). Leaf-rolling data and fresh weight data were recorded for each plant following treatment application at the times specified below in Table 6.” for “post-spraying.”

soybean plants = assay: Soybean drought tolerance (stomatal conductance); conditions: for Reduction in stomatal conductance at 1 day post spraying: 300 mg/l foliar spray; for Percent Conductance (stomatal conductance, control = 100%), Day 1 / Percent Conductance (stomatal conductance, control = 100%), Day 2 / Percent Conductance (stomatal conductance, control = 100%), Day 5 / Percent Conductance (stomatal conductance, control = 100%), Day 6 / Percent Conductance (stomatal conductance, control = 100%), Day 7: foliar spray 300 mg/l, 0.3 mg/plant
Description: In this study, soybean plants were grown for 10 days under ambient lab temperature conditions and illumination of 150 umol m^2 s^−1 and a 16:8 photoperiod. At spraying, the primary leaves were fully expanded and the first trifoliate leaves were partially expanded. The plants were sprayed to dampness with solutions of water, S-ABA, 3′-methyl-(S)-abscisic acid, or 3′-propargyl-(S)-abscisic acid containing 0.025% (v/v) non-ionic surfactant. At times following spraying, the conductance of the primary leaves was measured using an AP4 porometer (Delta T Devices, Cambridge, UK) to evaluate the effect on stomatal conductance. A decrease in stomatal aperture, reflected in the conductance measures, is an immediate and direct effect of applied S-ABA. To simplify the data, the controls were always set to 100%. In Table 9, the effect of spray applications on the stomatal conductance was measured.

[4] = Table 3 study, foliar spray 30 mg/l (3.4 g/acre)
[5] = Table 3 study, foliar spray 100 mg/l (11.4 g/acre)
[6] = Table 3 study, foliar spray 300 mg/l (34.1 g/acre)
[7] = Table 3 study, foliar spray 1000 mg/l (113.7 g/acre)
[8] = foliar spray 100 ppm or 2.5 mg/plant
[9] = foliar spray 300 ppm or 7.5 mg/plant
[10] = foliar spray 1000 ppm or 25 mg/plant
[11] = Table 4 study, foliar spray 30 mg/l (3.4 g/acre)
[12] = Table 4 study, foliar spray 100 mg/l (11.4 g/acre)
[13] = Table 4 study, foliar spray 300 mg/l (34.1 g/acre)
[14] = Table 4 study, foliar spray 1000 mg/l (113.7 g/acre)

Row | SMILES | Maintenance of growth under cold (10° C.) conditions [1] | Average Stomatal Conductance (% of Control), 6 DAS [2, 8] | Average Stomatal Conductance (% of Control), 16 DAS [2, 8] | Average Stomatal Conductance (% of Control), 6 DAS [2, 9] | Average Stomatal Conductance (% of Control), 16 DAS [2, 9] | Average Stomatal Conductance (% of Control), 6 DAS [2, 10] | Average Stomatal Conductance (% of Control), 16 DAS [2, 10] | Relative potency resulting in a 25% reduction in transpiration, times that seen with S-ABA [2] [times] | Shoot Fresh Weight, 15 DAS ([3]; 100 ppm or 2.5 mg/plant) [grams] | Average # of Rolled Leaves/Plant, 5 DAS ([3]; 100 ppm or 2.5 mg/plant) | Average # of Rolled Leaves/Plant, 6 DAS ([3]; 100 ppm or 2.5 mg/plant) | Average # of Rolled Leaves/Plant, 8 DAS ([3]; 100 ppm or 2.5 mg/plant) | Shoot Fresh Weight, 15 DAS ([3]; 300 ppm or 7.5 mg/plant) [grams] | Average # of Rolled Leaves/Plant, 5 DAS ([3]; 300 ppm or 7.5 mg/plant) | Average # of Rolled Leaves/Plant, 6 DAS ([3]; 300 ppm or 7.5 mg/plant) | Average # of Rolled Leaves/Plant, 8 DAS ([3]; 300 ppm or 7.5 mg/plant) | Shoot Fresh Weight, 15 DAS ([3]; 1000 ppm or 25 mg/plant) [grams] | Average # of Rolled Leaves/Plant, 6 DAS ([3]; 1000 ppm or 25 mg/plant) | Average # of Rolled Leaves/Plant, 8 DAS ([3]; 1000 ppm or 25 mg/plant) | Reduction in stomatal conductance at 1 day post spraying (soybean plants) [%] | further results
1 | CC1=C(C)[C@](O)(/C=C/C(C)=C\C(=O)O)C(C)(C)CC1=O [3′-methyl-(S)-ABA, (2Z,4E)-5-((S)-1-hydroxy-2,3,6,6-tetramethyl-4-oxocyclohex-2-en-1-yl)-3-methylpenta-2,4-dienoic acid] | maintained growth | 93.3 % of Control | 98.3 % of Control | 70.6 % of Control | 79.4 % of Control | 69.6 % of Control | 74.5 % of Control | 1.97 | 256.0 | 1.6 | 4.6 | 9.0 | 276.6 | 2.0 | 3.6 | 8.4 | 373.4 | 2.2 | 7.2 | 89 | Growth Rate, Greenhouse 7-9 d post spray [1, 4]: 2.650 cm/day; Growth Rate, Greenhouse 0-2 d post spray ([1]; Table 3 study, foliar spray 30 mg/l (3.4 g/acre), before chilling): 3.725 cm/day; Growth Rate, Growth Chamber 10° C. 2-7 d post spray [1, 4]: 1.092 cm/day; Growth Rate, Greenhouse 7-9 d post spray [1, 5]: 2.795 cm/day; Growth Rate, Greenhouse 0-2 d post spray ([1]; Table 3 study, foliar spray 100 mg/l (11.4 g/acre), before chilling): 4.290 cm/day; Growth Rate, Growth Chamber 10° C. 2-7 d post spray [1, 5]: 1.084 cm/day; Growth Rate, Greenhouse 7-9 d post spray [1, 6]: 3.565 cm/day; Growth Rate, Greenhouse 0-2 d post spray ([1]; Table 3 study, foliar spray 300 mg/l (34.1 g/acre), before chilling): 3.645 cm/day; Growth Rate, Growth Chamber 10° C. 2-7 d post spray [1, 6]: 0.990 cm/day; Growth Rate, Greenhouse 7-9 d post spray [1, 7]: 2.945 cm/day; Growth Rate, Greenhouse 0-2 d post spray ([1]; Table 3 study, foliar spray 1000 mg/l (113.7 g/acre), before chilling): 3.615 cm/day; Growth Rate, Growth Chamber 10° C. 2-7 d post spray [1, 7]: 1.160 cm/day; Plant growth initially following spraying ([1]; before chilling): initially suppressed; Leaf area ([1]; in one of two studies, not repeatable across studies, 3′-methyl-(S)-abscisic acid at 30, 100 and 300 mg/liter): increased; Percent Conductance (stomatal conductance, control = 100%), Day 1 (soybean plants): 11%; Percent Conductance (stomatal conductance, control = 100%), Day 2 (soybean plants): 18%; Percent Conductance (stomatal conductance, control = 100%), Day 5 (soybean plants): 36%; Percent Conductance (stomatal conductance, control = 100%), Day 6 (soybean plants): 68%; Percent Conductance (stomatal conductance, control = 100%), Day 7 (soybean plants): 79%
2 | C#CCC1=C(C)[C@](O)(/C=C/C(C)=C\C(=O)O)C(C)(C)CC1=O [3′-propargyl-(S)-ABA, (2Z,4E)-5-((S)-1-hydroxy-2,6,6-trimethyl-4-oxo-3-(prop-2-yn-1-yl)cyclohex-2-en-1-yl)-3-methylpenta-2,4-dienoic acid] | did not maintain growth under cold stress | 80.6 % of Control | 87.7 % of Control | 74.3 % of Control | 77.9 % of Control | 56.0 % of Control | 59.0 % of Control | 4.83 | 263.9 | 1.8 | 3.8 | 7.2 | 313.1 | 1.8 | 3.6 | 8.0 | 334.4 | 0.0 | 7.0 | 92 | Growth during stress recovery following cold ([1]; 3′-propargyl-(S)-ABA particularly between 11.4 and 113.7 g/acre, S-ABA at rates up to 1000 mg/liter (113.7 g/acre)): did aid growth during stress recovery; Growth Rate, Greenhouse 7-9 d post spray [1, 11]: 1.978 cm/day; Growth Rate, Greenhouse 0-2 d post spray ([1]; Table 4 study, foliar spray 30 mg/l (3.4 g/acre), before chilling): 3.239 cm/day; Growth Rate, Growth Chamber 10° C. 2-7 d post spray [1, 11]: 1.258 cm/day; Growth Rate, Greenhouse 7-9 d post spray [1, 12]: 2.489 cm/day; Growth Rate, Greenhouse 0-2 d post spray ([1]; Table 4 study, foliar spray 100 mg/l (11.4 g/acre), before chilling): 2.294 cm/day; Growth Rate, Growth Chamber 10° C. 2-7 d post spray [1, 12]: 1.173 cm/day; Growth Rate, Greenhouse 7-9 d post spray [1, 13]: 2.500 cm/day; Growth Rate, Greenhouse 0-2 d post spray ([1]; Table 4 study, foliar spray 300 mg/l (34.1 g/acre), before chilling): 2.544 cm/day; Growth Rate, Growth Chamber 10° C. 2-7 d post spray [1, 13]: 1.033 cm/day; Growth Rate, Greenhouse 7-9 d post spray [1, 14]: 2.300 cm/day; Growth Rate, Greenhouse 0-2 d post spray ([1]; Table 4 study, foliar spray 1000 mg/l (113.7 g/acre), before chilling): 2.172 cm/day; Growth Rate, Growth Chamber 10° C. 2-7 d post spray [1, 14]: 0.787 cm/day; Average # of Rolled Leaves/Plant, 5 DAS ([3]; 1000 ppm or 25 mg/plant): 0.0; Percent Conductance (stomatal conductance, control = 100%), Day 1 (soybean plants): 8%; Percent Conductance (stomatal conductance, control = 100%), Day 2 (soybean plants): 14%; Percent Conductance (stomatal conductance, control = 100%), Day 5 (soybean plants): 33%; Percent Conductance (stomatal conductance, control = 100%), Day 6 (soybean plants): 52%; Percent Conductance (stomatal conductance, control = 100%), Day 7 (soybean plants): 57%
